According to US20090227578A1, “Azabenzimidazole Derivatives, Their Manufacture and Use as Anti-Cancer Agents” (priority 2005, published 2009):

Experiments:
[1] = molecular target: T1, Lck (p56lck, active, Upstate) (Homo sapiens, UniProt P06239); assay: SRC-Inhibitor-Assay, time-resolved fluorescence kinase assay (Lck); assay type: biochemical; settings: ATP 5 μM; peptide 10 μM; enzyme pre-incubated 15 min at 15° C. with inhibitor
T1 construct: purchased UBI, Upstate Biotech, Inc
Description: The activity of the compounds according to this invention as protein kinase inhibitors, in particular for the src-family tyrosine kinases, was shown by using the following assay.
(§1) SRC-Inhibitor-Assay Parameters:
Eu-labelled phosphotyrosine antibody:—for Lck Cisbio Mab PT66-K, • for Src EG&G Wallac PT66 Eu-W1024 (all commercially available).
(§2) Peptides: Ro: NH2-A-E-E-E-I—Y-G-E-F-E-A-K—K—K—K—CONH2, and
(§3) • Ja133-Ro: Ja133-G-Aminocaprylic acid-A-E-E-E-I—Y-G-E-F-E-A-K—K—K—K—CONH2, wherein Ja133 is LightCycler-Red 640-N-hydroxy succinimide ester; • whereby both peptides were synthesized by an optimized solid phase peptide synthesis protocol (Merrifield, Fed. Proc. Fed. Amer. Soc. Exp. Biol. 21 (1962) 412) on a Zinsser SMP350 peptide synthesizer. Shortly, the peptide was assembled on 160 mg (22.8 μmol scale) of a Rink-Linker modified polystyrene solid phase by repeatedly conjugating an twenty fold excess of amino acids each protected by temporary piperidine labile Fmoc- and permanent acid labile tert-Bu-, BOC- and O-tert-Bu-groups depending on the side chain function. The substrate sequence […] was N-terminal additionally mounted with the spacer amino acids Aminocaprylic acid and Glycin. After cleavage of the N-terminal temporary protecting group the still attached and protected peptide was labeled with a 1.5 fold amount of LightCycler-Red 640-N-hydroxy succinimide ester (purchased from Roche Diagnostics GmbH) and triethylamine. After 3 hrs. the resin was washed with Dimethylformamide and Isopropanol until the eluates of the blue resin got colourless. […] The substrate was finally isolated by a preparative reverse phase HPLC purification. The purification yielded 12.2 mg RP-HPLC single peak pure blue material (lyophilisate). The identity was proven by MALDI mass spectroscopy [2720.0]. • Enzymes: Upstate Lck (p56^lck, active), Upstate Src (p60^c-src, partially purified) were purchased from UBI, Upstate Biotech, Inc. Time-resolved Fluorescence Assay: Reader: Perkin Elmer, Wallac Viktor 1420-040 multilabel counter; Liquid handling system: Beckman Coulter, Biomek 2000.
(§4) ATP, Tween 20, 4-(2-hydroxyethyl)-1-piperazineethanesulfonic acid (HEPES) were purchased from Roche Molecular Biochemicals, MgCl2 and MnCl2 were purchased from Merck Eurolab, Tris(2-carboxyethyl)phosphine hydrochloride (TCEP) was purchased from Pierce, 384 Well low volume fluorescence plates was purchased from Falcon.
(§5) At first the enzyme is pre-incubated for 15 min. at 15° C. in aqueous solution with corresponding amounts of inhibitors according to this invention. Then the phosphorylation reaction is started by adding a reaction mixture, containing ATP, Peptide and PT66, and subsequent shaking. The proceeding of this reaction is immediately monitored using time resolved fluorescence spectroscopy in a suitable well plate reader.
(§6) The IC50-values can be obtained from the reaction rates by using a non-linear curve fit (XLfit software (ID Business Solution Ltd., Guilford, Surrey, UK))

[2] = molecular target: T2, Src (p60c-src, partially purified, Upstate) (Homo sapiens, UniProt P12931); assay: SRC-Inhibitor-Assay, time-resolved fluorescence kinase assay (Src); assay type: biochemical; settings: ATP 5 μM; peptide 10 μM; enzyme pre-incubated 15 min at 15° C. with inhibitor
T2 construct: purchased UBI, Upstate Biotech, Inc
Procedure: as §1, §2
as §3, with “purification.” for “purification. The purification yielded 12.2 mg RP-HPLC single peak pure blue material (lyophilisate). The identity was proven by MALDI mass spectroscopy [2720.0]. • Enzymes: Upstate Lck (p56^lck, active), Upstate Src (p60^c-src, partially purified) were purchased from UBI, Upstate Biotech, Inc. Time-resolved Fluorescence Assay: Reader: Perkin Elmer, Wallac Viktor 1420-040 multilabel counter; Liquid handling system: Beckman Coulter, Biomek 2000.”
as §4, §5, §6

T1 sequence (P06239 whole entry): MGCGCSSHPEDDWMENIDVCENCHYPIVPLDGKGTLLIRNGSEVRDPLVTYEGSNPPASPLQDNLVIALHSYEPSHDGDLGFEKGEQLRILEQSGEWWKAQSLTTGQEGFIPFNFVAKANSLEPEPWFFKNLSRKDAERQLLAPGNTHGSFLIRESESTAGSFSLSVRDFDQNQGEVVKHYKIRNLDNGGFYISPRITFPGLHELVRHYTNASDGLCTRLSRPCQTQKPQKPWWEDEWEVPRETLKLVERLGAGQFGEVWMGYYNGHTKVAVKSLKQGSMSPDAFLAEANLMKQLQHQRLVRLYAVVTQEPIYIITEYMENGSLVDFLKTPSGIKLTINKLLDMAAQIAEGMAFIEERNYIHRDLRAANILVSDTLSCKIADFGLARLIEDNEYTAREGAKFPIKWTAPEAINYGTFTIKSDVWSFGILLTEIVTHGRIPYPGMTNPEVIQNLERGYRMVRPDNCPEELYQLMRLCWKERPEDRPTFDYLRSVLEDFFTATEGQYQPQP
T2 sequence (P12931 whole entry): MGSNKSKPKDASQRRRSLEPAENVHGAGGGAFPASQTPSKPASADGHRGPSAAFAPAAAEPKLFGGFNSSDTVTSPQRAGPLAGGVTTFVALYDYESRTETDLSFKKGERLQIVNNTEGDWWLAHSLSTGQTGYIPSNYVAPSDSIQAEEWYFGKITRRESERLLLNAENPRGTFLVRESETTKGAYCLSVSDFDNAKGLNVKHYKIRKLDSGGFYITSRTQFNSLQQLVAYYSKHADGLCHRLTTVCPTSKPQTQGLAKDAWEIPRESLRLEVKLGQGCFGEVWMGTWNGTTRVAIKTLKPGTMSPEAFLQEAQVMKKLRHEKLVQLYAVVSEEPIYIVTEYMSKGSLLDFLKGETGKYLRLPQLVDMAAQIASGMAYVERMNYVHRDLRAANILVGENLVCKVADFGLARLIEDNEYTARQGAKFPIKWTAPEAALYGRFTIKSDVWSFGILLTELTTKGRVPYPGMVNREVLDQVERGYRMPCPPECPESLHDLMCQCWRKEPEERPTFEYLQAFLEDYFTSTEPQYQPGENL

Compound	IC50 [1]	IC50 [2]
Cc1ccc(NC(=O)c2ccccc2)cc1C(=O)Nc1cnc2[nH]c(-c3ccccc3)nc2c1 [Example 1-5, 5-Benzoylamino-2-methyl-N-(2-phenyl-3H-imidazo[4,5-b]pyridin-6-yl)-benzamide]	10 to 100 nM	10 to 100 nM
Cc1ccc(NC(=O)c2ccc(N3CCOCC3)cc2)cc1C(=O)Nc1cnc2[nH]c(-c3ccccc3)nc2c1 [Example 1-3, 2-Methyl-5-(4-morpholin-4-yl-benzoylamino)-N-(2-phenyl-3H-imidazo[4,5-b]pyridin-6-yl)-benzamide]	64 nM	43 nM
Cc1ccc(NC(=O)/C=C/c2ccccc2)cc1C(=O)Nc1cnc2[nH]c(-c3ccccc3)nc2c1 [Example 1-4, 2-Methyl-5-[(E)-(3-phenyl-acryloyl)amino]-N-(2-phenyl-3H-imidazo[4,5-b]pyridin-6-yl)-benzamide]	10 to 100 nM	10 to 100 nM
Cc1ccc(NC(=O)/C=C/c2cccnc2)cc1C(=O)Nc1cnc2[nH]c(-c3ccccc3)nc2c1 [Example 1-2, 2-Methyl-N-(2-phenyl-3H-imidazo[4,5-b]pyridin-6-yl)-5-((E)-3-pyridin-3-yl-acryloylamino)-benzamide]	10 to 100 nM	10 to 100 nM
Cc1ccc(NC(=O)/C=C/c2ccncc2)cc1C(=O)Nc1cnc2[nH]c(-c3ccccc3)nc2c1 [Example 1-1, 2-Methyl-N-(2-phenyl-3H-imidazo[4,5-b]pyridin-6-yl)-5-((E)-3-pyridin-4-yl-acryloylamino)-benzamide]	10 to 100 nM	100 to 1000 nM

Other lines, results leading:

IC50 [1]	IC50 [2]	Compound
10 to 100 nM		O=C(Nc1ccc(Cl)c(C(=O)Nc2cnc3[nH]c(-c4ccccc4)nc3c2)c1)c1ccccc1 [Example 2-5, 5-Benzoylamino-2-chloro-N-(2-phenyl-3H-imidazo[4,5-b]pyridin-6-yl)-benzamide]
10 to 100 nM		O=C(/C=C/c1ccccc1)Nc1ccc(Cl)c(C(=O)Nc2cnc3[nH]c(-c4ccccc4)nc3c2)c1 [Example 2-2, 2-Chloro-5-[(E)-(3-phenyl-acryloyl)amino]-N-(2-phenyl-3H-imidazo[4,5-b]pyridin-6-yl)-benzamide]
100 to 1000 nM	10 to 100 nM	Cc1ccc(NC(=O)c2cccc(-c3ccccc3)c2)cc1C(=O)Nc1cnc2[nH]c(-c3ccccc3)nc2c1 [Example 1-6, Biphenyl-3-carboxylic acid[4-methyl-3-(2-phenyl-3H-imidazo[4,5-b]pyridin-6-ylcarbamoyl)-phenyl]-amide]
10 to 100 nM	10 to 100 nM	O=C(Nc1ccc(Cl)c(C(=O)Nc2cnc3[nH]c(-c4ccccc4)nc3c2)c1)c1ccc(N2CCOCC2)cc1 [Example 2-1, 2-Chloro-5-(4-morpholin-4-yl-benzoylamino)-N-(2-phenyl-3H-imidazo[4,5-b]pyridin-6-yl)-benzamide]
200 nM	64 nM	O=C(Nc1ccc(Cl)c(C(=O)Nc2cnc3[nH]c(-c4ccccc4)nc3c2)c1)c1cccc(-c2ccccc2)c1 [Example 2-4, Biphenyl-3-carboxylic acid[4-chloro-3-(2-phenyl-3H-imidazo[4,5-b]pyridin-6-ylcarbamoyl)-phenyl]-amide]
